Assay results: patent publication US20240132431A1, “METHOD FOR ALKYLATING ACIDIC FUNCTIONAL GROUP” (Chugai Seiyaku Kabushiki Kaisha, priority 2021, published 2024)

Molecular target: T1, Bcl-2 protein (Recombinant Human Bcl-2 Protein) (Homo sapiens, UniProt P10415)
T1 construct: purchased Novus NBP2-34889
Test: Binding evaluation of mixture library compounds to Bcl-2 using AS-MS (affinity selection mass spectrometry)
Details: for ASMS ratio (%) n = 1 / ASMS ratio (%) n = 2: ASMS Ratio(%)=(A−C)/B×100; for ASMS ratio (%) n = 1: replicate n = 1; for ASMS ratio (%) n = 2: replicate n = 2
Outline: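 ASMS Ratio (%) was calculated as (A−C)/B×100, where A is the protein sample after SEC, B the protein-free sample without SEC and C the protein-free sample after SEC. Each compound was at […] in a 1200-member pool with 20 μM Bcl-2, incubated 1 h at 23° C.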

[1] = AS-MS, mixture of 1200 compounds, Bcl-2
[2] = AS-MS on the mixture of 1200 library compounds

T1 sequence (P10415 whole entry): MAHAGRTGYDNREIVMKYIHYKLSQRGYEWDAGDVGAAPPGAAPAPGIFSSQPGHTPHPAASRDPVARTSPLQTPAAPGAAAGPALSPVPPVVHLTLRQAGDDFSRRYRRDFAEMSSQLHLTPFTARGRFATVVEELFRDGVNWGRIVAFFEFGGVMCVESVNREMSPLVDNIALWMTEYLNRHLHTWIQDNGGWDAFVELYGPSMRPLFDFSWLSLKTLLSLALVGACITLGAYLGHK

ASMS ratio (%) n = 1 [1] [%]	ASMS ratio (%) n = 2 [1] [%]	ASMS ratio (%) (n = 1)	ASMS ratio (%) (n = 2)	Compound	other results
3.5	−0.6			CCOc1cccc(C#Cc2ccccc2CN2CCN(c3ccc(C(=O)NCC(F)(F)F)nn3)CC2)c1 [B1K095-01, 6-[4-[[2-[2-(3-Ethoxyphenyl)ethynyl]phenyl]methyl]piperazin-1-yl]-N-(2,2,2-trifluoroethyl)pyridazine-3-carboxamide]	
		0.0	0.0	CCOc1cncc(-c2ccc(CN3CCN(c4ccc(C(=O)NS(C)(=O)=O)nn4)CC3)cc2F)c1 [B2I078-01]	
0.0	0.0			CCOc1cccc(-c2csc(C(=O)N3CCN(c4ccc(C(=O)NCC(F)(F)F)nn4)CC3)c2)c1 [B1K001-01, 6-[4-[4-(3-Ethoxyphenyl)thiophene-2-carbonyl]piperazin-1-yl]-N-(2,2,2-trifluoroethyl)pyridazine-3-carboxamide]	
		0.0	−2.2	CCOc1cccc(C#Cc2ccccc2CN2CCN(c3ccc(C(=O)NS(C)(=O)=O)cc3)CC2)c1 [B2I069-01]	
1.5	3.6			CCOc1cncc(-c2ccc(CN3CCN(c4ccc(C(=O)NCC56CC7CC(CC(C7)C5)C6)cc4)CC3)cc2C)c1 [B1A048-01, N-(1-Adamantylmethyl)-4-[4-[[4-(5-ethoxypyridin-3-yl)-3-methylphenyl]methyl]piperazin-1-yl]benzamide]	

The next lines start with the compound.

Compound	ASMS ratio (%) n = 1 [1] [%]	ASMS ratio (%) n = 2 [1] [%]	ASMS ratio (%) (n = 1)	ASMS ratio (%) (n = 2)	other results
CCOc1cccc(-c2ccc(CN3CCN(c4ccc(C(=O)NS(C)(=O)=O)cc4)CC3)cc2C)c1 [B2I047-01]			0.8	1.4	
CCOc1cccc(-c2ccc(C(=O)N3CCN(c4ccc(C(=O)NS(=O)(=O)CCC(F)(F)F)cc4)CC3)c3ccccc23)c1 [B2N035-01, 4-[4-[4-(3-Ethoxyphenyl)naphthalene-1-carbonyl]piperazin-1-yl]-N-(3,3,3-trifluoropropylsulfonyl)benzamide]			0.0	0.0	
CCOc1cncc(-c2ccc(CN3CCN(c4ccc(C(=O)NS(=O)(=O)c5ccc(NCCSc6ccccc6)c([N+](=O)[O-])c5)cc4)CC3)cc2F)c1 [B2Q052-01, 4-[4-[[4-(5-Ethoxypyridin-3-yl)-3-fluorophenyl]methyl]piperazin-1-yl]-N-[3-nitro-4-(2-phenylsulfanylethylamino)phenyl]sulfonylbenzamide]					ASMS ratio (%) n = 1 (AS-MS, mixture library, Bcl-2): 22.8%; ASMS ratio (%) n = 2 (AS-MS, mixture library, Bcl-2): 13.9%
CCOc1cncc(C#Cc2ccccc2CN2CCN(c3ccc(C(=O)N(C)CC45CC6CC(CC(C6)C4)C5)nn3)CC2)c1 [B3A096-01, N-(1-Adamantylmethyl)-6-[4-[[2-[2-(5-ethoxypyridin-3-yl)ethynyl]phenyl]methyl]piperazin-1-yl]-N-methylpyridazine-3-carboxamide]					ASMS ratio (%) n = 1 [2]: 7.7%; ASMS ratio (%) n = 2 [2]: 2.4%
6-[4-[[3-(3-Ethoxyphenyl)-5-propan-2-yloxyphenyl]methyl]piperazin-1-yl]-N-propylpyridazine-3-carboxamide [B1M016-01]	0.0	0.0			
CCOc1cccc(-c2ccc(C(C)N3CCN(c4ccc(C(=O)NS(=O)(=O)CC56CC7CC(CC(C7)C5)C6)cc4)CC3)cc2)c1 (stereo not drawn) [B2A097-01, N-(1-Adamantylmethylsulfonyl)-4-[4-[1-[4-(3-ethoxyphenyl)phenyl]ethyl]piperazin-1-yl]benzamide]					ASMS ratio (%) n = 1 (AS-MS, mixture library, Bcl-2): 9.7%; ASMS ratio (%) n = 2 (AS-MS, mixture library, Bcl-2): 0.4%
CCOc1cccc(-c2csc(C(=O)N3CCN(c4ccc(C(=O)NS(=O)(=O)c5ccc(NCCSc6ccccc6)c([N+](=O)[O-])c5)cc4)CC3)c2)c1 [B2Q023-01, 4-[4-[4-(3-Ethoxyphenyl)thiophene-2-carbonyl]piperazin-1-yl]-N-[3-nitro-4-(2-phenylsulfanylethylamino)phenyl]sulfonylbenzamide]					ASMS ratio (%) n = 1 (AS-MS, mixture library, Bcl-2): 0.0%; ASMS ratio (%) n = 2 (AS-MS, mixture library, Bcl-2): 0.0%
